Measured values: patent US20240041042A1, “1-(PYRIDYL)-5-AZINYLPYRAZOLE DERIVATIVES, AND THEIR USE FOR CONTROL OF UNDESIRED PLANT GROWTH” (Bayer Aktiengesellschaft, priority 2020, published 2024)
Read-outs that look alike come from different tables or passages of the source.

Key:
Assay type in all cases: in vivo
[1] = system: Alopecurus myosuroides (ALOMY); assay: Pre-emergence herbicidal action against ALOMY; details: scored visually after about 3 weeks, 100% = plants have died
Source text: (§1) Seeds of monocotyledonous and dicotyledonous weed plants and crop plants are placed in plastic or organic planting pots and covered with soil. The compounds of the invention, formulated in the form of wettable powders (WP) or as emulsion concentrates (EC), are then applied to the surface of the covering soil as aqueous suspension or emulsion with addition of 0.5% additive at a water application rate equivalent to 600 l/ha. After the treatment, the pots are placed in a greenhouse and kept under good growth conditions for the trial plants. After about 3 weeks, the effect of the preparations is scored visually in comparison with untreated controls as percentages. For example, 100% activity=the plants have died, 0% activity=like control plants.
(§2) Tables A1 to A13 below show the effects of selected compounds of the general formula (I) on various harmful plants and at an application rate corresponding to 320 g/ha or lower, which were obtained by the experimental procedure mentioned above. The appendices “a”, “b” and “c” give differentiation by dosage used with otherwise the same harmful plants tested.

[2] = system: Amaranthus retroflexus (AMARE); assay: Pre-emergence herbicidal action against AMARE; details: visual scoring after about 3 weeks vs untreated controls
Source text: as §1, §2

Avena fatua (AVEFA) [3] = assay: Pre-emergence herbicidal action against AVEFA; details: visual scoring after about 3 weeks vs untreated controls
Source text: as §1, §2

[4] = system: Echinochloa crus-galli (ECHCG); assay: Pre-emergence herbicidal action against ECHCG
Source text: as §1, §2

Lolium rigidum (LOLRI) [5] = assay: Pre-emergence herbicidal action against LOLRI
Source text: as §1, §2

[6] = system: Matricaria inodora (MATIN); assay: Pre-emergence herbicidal action against MATIN
Source text: as §1, §2

[7] = system: Polygonum convolvulus (POLCO); assay: Pre-emergence herbicidal action against POLCO
Source text: as §1, §2

Setaria viridis (SETVI) [8] = assay: Pre-emergence herbicidal action against SETVI
Source text: as §1, §2

[9] = system: Verconica persica (VERPE); assay: Pre-emergence herbicidal action against VERPE
Source text: as §1, §2

Viola tricolor (VIOTR) [10] = assay: Pre-emergence herbicidal action against VIOTR
Source text: as §1, §2

[11] = system: Alopecurus myosuroides (ALOMY); assay: Post-emergence herbicidal action against ALOMY; details: visual rating about 3 weeks after treatment vs untreated controls (100% = plants have died, 0% = like control plants)
Experimental: (§3) Seeds of monocotyledonous and dicotyledonous weeds and crop plants are placed in sandy loam in plastic or organic planting pots, covered with soil and cultivated in a greenhouse under controlled growth conditions. 2 to 3 weeks after sowing, the test plants are treated at the one-leaf stage. The compounds of the invention, formulated in the form of wettable powders (WP) or as emulsion concentrates (EC), are then sprayed onto the green parts of the plants as aqueous suspension or emulsion with addition of 0.5% additive at a water application rate of 600 l/ha (converted). After the test plants have been kept in the greenhouse under optimum growth conditions for about 3 weeks, the activity of the preparations is rated visually in comparison to untreated controls. For example, 100% activity=the plants have died, 0% activity=like control plants.
(§4) Tables B1 to B13 below show the effects of selected compounds of the general formula (I) according to Table 1 on various harmful plants and at an application rate corresponding to 320 g/ha or lower, which were obtained by the experimental procedure mentioned above. The appendices “a”, “b” and “c” give differentiation by dosage used with otherwise the same harmful plants tested.

Avena fatua (AVEFA) [12] = assay: Post-emergence herbicidal action against AVEFA; details: visual rating about 3 weeks after treatment
Experimental: as §3, §4

Lolium rigidum (LOLRI) [13] = assay: Post-emergence herbicidal action against LOLRI
Experimental: as §3, §4

[14] = system: Pharbitis purpurea (PHBPU); assay: Post-emergence herbicidal action against PHBPU
Experimental: as §3, §4

[15] = system: Verconica persica (VERPE); assay: Post-emergence herbicidal action against VERPE
Experimental: as §3, §4

Oryza sativa (ORYSA) = details: crop plant compatibility
Experimental: as §3
(§5) The observed effects on selected crop plants are reported here in comparison to the untreated controls (values in %). The appendices “a”, “b” and “c” give differentiation by dosage used with otherwise the same crop plants tested.

Zea mays (ZEAMX) = details: for Post-emergence action against ZEAMX in % (crop plant compatibility): 20 g/ha, effect in comparison to untreated controls; for Post-emergence action against ZEAMX in %: crop plant compatibility, 80 g/ha, effect vs untreated controls
Experimental: as §3, §5

[16] = system: Pharbitis purpurea (PHBPU); assay: Pre-emergence herbicidal action against PHBPU; details: dosage 320 g/ha
Source text: as §1, §2

[17] = system: Amaranthus retroflexus (AMARE); assay: Post-emergence herbicidal action against AMARE; details: 80 g/ha, visual rating about 3 weeks after treatment vs untreated controls (100% = plants have died, 0% = like control plants)
Experimental: as §3, §4

[18] = system: Echinochloa crus-galli (ECHCG); assay: Post-emergence herbicidal action against ECHCG
Experimental: as §3, §4

Setaria viridis (SETVI) [19] = assay: Post-emergence herbicidal action against SETVI
Experimental: as §3, §4

[20] = system: Abutilon theophrasti (ABUTH); assay: Post-emergence herbicidal action against ABUTH; details: 320 g/ha, visual rating about 3 weeks after treatment vs untreated controls (100% = plants have died, 0% = like control plants)
Experimental: as §3, §4

[21] = system: Polygonum convolvulus (POLCO); assay: Post-emergence herbicidal action against POLCO; details: dosage 320 g/ha
Experimental: as §3, §4

Viola tricolor (VIOTR) [22] = assay: Post-emergence herbicidal action against VIOTR
Experimental: as §3, §4

[23] = 80 g/ha, effect in comparison to untreated controls

Row | Structure (SMILES) | Pre-emergence action against ALOMY ([1]; 80 g/ha) [%] | Pre-emergence action against ALOMY ([1]; 320 g/ha) [%] | Pre-emergence action against AMARE in % ([2]; 80 g/ha) [%] | Pre-emergence action against AMARE in % ([2]; 320 g/ha) [%] | Pre-emergence action against AVEFA in % (Avena fatua (AVEFA) [3]; 320 g/ha) [%] | Pre-emergence action against ECHCG in % ([4]; dosage 320 g/ha) [%] | Pre-emergence action against LOLRI in % (Lolium rigidum (LOLRI) [5]; dosage 80 g/ha) [%] | Pre-emergence action against LOLRI in % (Lolium rigidum (LOLRI) [5]; dosage 320 g/ha) [%] | Pre-emergence action against MATIN in % ([6]; dosage 320 g/ha) [%] | Pre-emergence action against POLCO in % ([7]; dosage 80 g/ha) [%] | Pre-emergence action against POLCO in % ([7]; dosage 320 g/ha) [%] | Pre-emergence action against SETVI in % (Setaria viridis (SETVI) [8]; dosage 80 g/ha) [%] | Pre-emergence action against SETVI in % (Setaria viridis (SETVI) [8]; dosage 320 g/ha) [%] | Pre-emergence action against VERPE in % ([9]; dosage 80 g/ha) [%] | Pre-emergence action against VERPE in % ([9]; dosage 320 g/ha) [%] | Pre-emergence action against VIOTR in % (Viola tricolor (VIOTR) [10]; 320 g/ha, Viola tricolor) [%] | Pre-emergence action against VIOTR in % (Viola tricolor (VIOTR) [10]; dosage 80 g/ha) [%] | Post-emergence action against ALOMY in % ([11]; 80 g/ha) [%] | Post-emergence action against AVEFA in % (Avena fatua (AVEFA) [12]; 80 g/ha) [%] | Post-emergence action against ZEAMX in % (Zea mays (ZEAMX)) [%] | further results
1 | COCCOCCOC(=O)[C@@H](C)Oc1nn(-c2ncccc2F)c(-c2ccc(F)nc2)c1Br [Example I-34] | 90 | 100 | 100 | 100 | 90 | 100 | 90 | 100 | 90 | 80 | 90 | 90 | 100 | 90 | 100 | 100 | 100 | 90 | 90 | 10 | Pre-emergence action against AVEFA in % (Avena fatua (AVEFA) [3]; 80 g/ha): 80%; Post-emergence action against LOLRI in % (Lolium rigidum (LOLRI) [13]; dosage 80 g/ha): 80%; Post-emergence action against PHBPU in % ([14]; dosage 80 g/ha): 80%; Post-emergence action against VERPE in % ([15]; dosage 80 g/ha): 90%; Post-emergence action against ORYSA in % (Oryza sativa (ORYSA); 20 g/ha, effect vs untreated controls): 10%; Post-emergence action against ORYSA in % (Oryza sativa (ORYSA); [23]): 20%; Post-emergence action against ZEAMX in % (crop plant compatibility) (Zea mays (ZEAMX)): 10%
2 | CCOC(=O)COc1nn(-c2ncccc2F)c(-c2ccc(F)nc2)c1C1CC1 [Example I-40] | 100 | 100 | 80 | 100 | 100 | 100 | 90 | 100 | – | – | 80 | 100 | 100 | – | 100 | 100 | 90 | 100 | 80 | 20 | Pre-emergence action against ECHCG in % ([4]; dosage 80 g/ha): 90%; Pre-emergence action against PHBPU in % [16]: 80%; Post-emergence action against AMARE in % [17]: 80%; Post-emergence action against ECHCG in % ([18]; dosage 80 g/ha): 90%; Post-emergence action against LOLRI in % (Lolium rigidum (LOLRI) [13]; dosage 80 g/ha): 90%; Post-emergence action against PHBPU in % ([14]; dosage 80 g/ha): 80%; Post-emergence action against SETVI in % (Setaria viridis (SETVI) [19]; dosage 80 g/ha): 80%; Post-emergence action against VERPE in % ([15]; dosage 80 g/ha): 80%; Post-emergence action against ZEAMX in % (crop plant compatibility) (Zea mays (ZEAMX)): 0%
3 | C[C@@H](Oc1nn(-c2nc(F)ccc2F)c(-c2ccc(F)nc2)c1Cl)C(=O)O [Example I-311] | 80 | 90 | 80 | 90 | 90 | 100 | 90 | 90 | 90 | 80 | 90 | – | 100 | 80 | 90 | 100 | 90 | 80 | – | 10 | Pre-emergence action against MATIN in % ([6]; dosage 80 g/ha): 80%; Post-emergence action against ABUTH in % [20]: 80%; Post-emergence action against ALOMY in % ([11]; 320 g/ha): 90%; Post-emergence action against AVEFA in % (Avena fatua (AVEFA) [12]; 320 g/ha): 80%; Post-emergence action against ECHCG in % ([18]; dosage 80 g/ha): 80%; Post-emergence action against ECHCG in % ([18]; dosage 320 g/ha): 90%; Post-emergence action against LOLRI in % (Lolium rigidum (LOLRI) [13]; dosage 320 g/ha): 80%; Post-emergence action against PHBPU in % ([14]; dosage 320 g/ha): 90%; Post-emergence action against POLCO in % [21]: 80%; Post-emergence action against SETVI in % (Setaria viridis (SETVI) [19]; dosage 320 g/ha): 80%; Post-emergence action against VERPE in % ([15]; 320 g/ha, VERPE): 90%; Post-emergence action against VIOTR in % (Viola tricolor (VIOTR) [22]; 80 g/ha): 80%; Post-emergence action against VIOTR in % (Viola tricolor (VIOTR) [22]; 320 g/ha): 80%; Post-emergence action against ORYSA in % (Oryza sativa (ORYSA); [23]): 20%
